From US6806377B1, “Preparation of metallocenes carrying a cyclopentadiene comprising a basic donor group” (The University of Leeds, priority 1999, dated 2004)
Each block holds one substance with its values, some of them ahead of it.

Legend:
[1] = stability towards water, air, moisture and heat (qualitative statements); assay type: physicochemical; conditions: for air / moisture stability: air and moisture
[2] = solubility in solvents (qualitative statements); assay type: physicochemical
[3] = background statement; cited from earlier work

- thermal stability [1]: thermally stable
- air / moisture stability [1]: highly air sensitive
Substance: (Cp(CH2)2N(CH2)5)2TiMe2 [Compound 3]

- air / moisture stability [1]: air stable
- storage stability ([1]; storage of the protected titanocene): can be stored indefinitely
- solubility in a polar solvent ([2]; polar solvent such as methanol, water and acetonitrile): soluble
- water solubility ([2]; water): water soluble
Substance: (CpCH2CH2N(CH2)2(CH2)2)2TiCl2.2HCl [Compound 2]

- air / moisture stability [1]: highly air and moisture sensitive
- solubility in aprotic, polar and non-polar solvents ([2]; solvents such as ether and toluene): soluble
Substance: (CpCH2CH2N(CH2)2)2)TiCl2 [Compound 1]

Substance: titanocene dichloride
- stability in aqueous solution [3]: unstable
